US20250302817A1, “METHODS FOR TREATING PTEN-MUTANT TUMORS” (Icahn School of Medicine at Mount Sinai, priority 2016, published 2025)

Tests used:
CYP2B6 = molecular target: T1, CYP2B6 (Homo sapiens, UniProt P20813); settings: in vivo; cited from earlier work
T1 construct: host or cells: human subjects, in vivo

CYP2C9 = molecular target: T2, CYP2C9 (Homo sapiens, UniProt P11712); settings: in vivo; cited from earlier work
T2 construct: S-warfarin (a CYP2C9 substrate); host or cells: human subjects, in vivo

PI3K signaling = assay: Immunoblot of pAKT in Pten KO and WT cells; format: cell-based; settings: 50 μM A771726
Experimental: Note that here as well as in FIG. 2, H-I, a large amount of DMSO was used in each condition to match the amount of orotate needed, narrowing the growth differential normally observed between leflunomide-treated and untreated cells in the PTEN mutant setting. FIG. 8B is a bar graph and immunoblot depicting cells transfected with siRNA against DHODH. The bar graph depicts cell viability measured using annexin V and 7AAD. 0.5 μg/mL actinomycin D was a positive control for cell death. (Students t-test, *p<0.05, n=3). […] FIG. 8C is an immunoblot of DHODH in Pten KO and WT cells. FIG. 8D is an immunoblot of pAKT in Pten KO and WT cells with or without treatment with 50 μM A771726. FIG. 8E and FIG. 8F are bar graphs depicting the GI50s of cells treated with dose titrations of 5-fluorouracil or mercaptopurine, respectively (Student's t-test, p>0.05, n=3). FIG. 8G depicts the confluence of prostate cells grown in media containing full glutamine (4 mM) or no added glutamine. Data shown as means±SD.
Samples were lysed in 2× Laemelli sample buffer with mercaptoethanol and were boiled before separation by SDS-PAGE on Tris-Glycine gels (Invitrogen EC60352). Wet-transfer to PVDF (Fisher ipvh00010) was followed by blocking for 1 hour in 10% nonfat milk (Fisher M-0841) in TBST. […]

CYP3A4 = molecular target: T3, CYP3A4 (Homo sapiens, UniProt P08684); settings: in vivo; cited from earlier work
T3 construct: midazolam (a CYP3A4 substrate); host or cells: human subjects, in vivo

[1] = tested on: MCCL-357 and MCCL-278 cells; assay: Karyotyping (chromosomal analysis); format: cell-based, mouse; settings: A771726, by 48 h; MCCL-357 compared to MCCL-278
Experimental: FIG. 4A is a graph showing positively-stained cells labeled with a gamma-H2AX antibody; cells were analyzed by flow cytometry (Student's t-test, *p<0.05, n=3). […] The mean fluorescence intensity (MFI) was determined using flow cytometry (Student's t-test, *p<0.01, n=3). FIG. 4C is a series of representative photographs showing MEFs treated with 150 μM A771726 for 24 h and labeled with EdU and gamma-H2AX. Left: representative confocal microscopy images. Right: quantified EdU and gamma-H2AX colocalized foci (Student's t-test, *p<0.05, n=3). […] Left: representative confocal microscopy images. Right: quantification of the number of foci per cell (Student's t-test, p>0.05, n=6). FIG. 4E is a graph showing the percentage of cells treated with 150 μM A771726 for times indicated and labeled with antibodies to RPA and gamma-H2AX positively staining for RPA alone or both RPA and gamma-H2AX; cells were analyzed by flow cytometry (Student's t-test, *p<0.05, n=4). […] FIGS. 4G and 4H are graphs quantifying the number of chromosomal breaks and multiradial formations per haploid genome (Student's t-test, *p-values on figure, cells scored/replicate>100). […]
FIG. 10D is a bar graph showing a quantitative depiction of the percent cell area with EdU-staining from images in FIG. 4D, used to normalize foci to cell size (Student's t-test, p>0.05, not significant, n=6). […]

[2] = healthy subjects; cited from earlier work
CYP2D6 = molecular target: T4, CYP2D6 (Homo sapiens, UniProt P10635); settings: in vivo; cited from earlier work
T4 construct: metoprolol (a CYP2D6 substrate); host or cells: human subjects, in vivo

CYP1A2 = settings: repeated doses of teriflunomide; cited from earlier work
[3] = in vivo; cited from earlier work
[4] = tested on: BCRP transporter and organic anion transporting polypeptide 1B1 and 1B3 (OATP1B1/1B3); settings: repeated doses of teriflunomide; cited from earlier work
[5] = repeated doses of teriflunomide; cited from earlier work

T1 sequence (P20813 whole entry): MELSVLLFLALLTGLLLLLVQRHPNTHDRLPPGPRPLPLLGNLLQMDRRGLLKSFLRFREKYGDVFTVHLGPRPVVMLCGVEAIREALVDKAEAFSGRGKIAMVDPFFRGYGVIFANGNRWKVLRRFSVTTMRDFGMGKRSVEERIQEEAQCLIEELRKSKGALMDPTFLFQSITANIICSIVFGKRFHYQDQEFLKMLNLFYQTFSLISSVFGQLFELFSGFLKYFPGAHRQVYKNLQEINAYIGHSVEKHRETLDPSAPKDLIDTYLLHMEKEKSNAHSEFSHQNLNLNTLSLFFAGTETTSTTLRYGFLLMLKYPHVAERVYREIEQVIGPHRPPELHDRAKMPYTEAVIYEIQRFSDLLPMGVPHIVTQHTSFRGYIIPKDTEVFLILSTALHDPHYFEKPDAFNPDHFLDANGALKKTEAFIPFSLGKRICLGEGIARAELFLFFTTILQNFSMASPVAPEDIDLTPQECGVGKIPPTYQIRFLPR
T3 sequence (P08684 whole entry): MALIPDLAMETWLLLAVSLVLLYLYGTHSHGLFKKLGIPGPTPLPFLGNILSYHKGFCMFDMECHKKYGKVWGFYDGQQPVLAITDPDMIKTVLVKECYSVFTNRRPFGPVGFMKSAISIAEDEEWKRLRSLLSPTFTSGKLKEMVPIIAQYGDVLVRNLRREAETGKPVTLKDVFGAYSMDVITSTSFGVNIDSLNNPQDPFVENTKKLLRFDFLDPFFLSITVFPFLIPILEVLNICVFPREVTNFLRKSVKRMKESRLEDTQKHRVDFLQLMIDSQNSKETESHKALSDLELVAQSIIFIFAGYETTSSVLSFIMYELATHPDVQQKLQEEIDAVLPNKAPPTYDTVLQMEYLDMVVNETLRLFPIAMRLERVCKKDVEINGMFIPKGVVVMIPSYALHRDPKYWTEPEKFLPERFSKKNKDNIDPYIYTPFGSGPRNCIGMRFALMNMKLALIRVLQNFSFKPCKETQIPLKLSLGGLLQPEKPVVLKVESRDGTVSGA
T2 sequence (P11712 whole entry): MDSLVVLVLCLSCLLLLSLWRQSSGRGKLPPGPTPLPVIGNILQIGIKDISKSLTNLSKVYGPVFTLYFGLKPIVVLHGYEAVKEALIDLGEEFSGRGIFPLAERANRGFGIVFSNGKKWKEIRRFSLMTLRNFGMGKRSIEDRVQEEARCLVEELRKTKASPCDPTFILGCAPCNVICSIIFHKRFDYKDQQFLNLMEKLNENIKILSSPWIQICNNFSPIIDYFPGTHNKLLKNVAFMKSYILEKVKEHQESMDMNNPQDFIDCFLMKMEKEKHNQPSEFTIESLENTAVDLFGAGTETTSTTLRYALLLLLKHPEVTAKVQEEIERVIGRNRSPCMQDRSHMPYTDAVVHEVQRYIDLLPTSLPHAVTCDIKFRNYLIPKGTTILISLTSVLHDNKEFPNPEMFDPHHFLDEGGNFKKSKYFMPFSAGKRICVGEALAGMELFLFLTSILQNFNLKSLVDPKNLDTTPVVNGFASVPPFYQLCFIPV
T4 sequence (P10635 whole entry): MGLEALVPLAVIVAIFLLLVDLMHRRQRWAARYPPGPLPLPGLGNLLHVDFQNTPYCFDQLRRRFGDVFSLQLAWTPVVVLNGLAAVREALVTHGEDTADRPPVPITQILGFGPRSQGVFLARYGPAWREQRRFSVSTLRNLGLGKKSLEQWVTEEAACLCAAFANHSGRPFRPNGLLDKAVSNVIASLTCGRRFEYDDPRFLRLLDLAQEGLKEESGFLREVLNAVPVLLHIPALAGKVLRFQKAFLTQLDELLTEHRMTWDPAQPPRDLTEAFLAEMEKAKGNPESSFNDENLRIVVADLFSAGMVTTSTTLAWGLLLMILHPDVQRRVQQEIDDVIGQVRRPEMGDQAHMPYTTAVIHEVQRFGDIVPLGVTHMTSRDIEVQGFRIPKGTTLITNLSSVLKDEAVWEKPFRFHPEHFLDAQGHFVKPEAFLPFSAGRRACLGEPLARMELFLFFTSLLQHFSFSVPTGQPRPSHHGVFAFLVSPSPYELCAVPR

## C/C(O)=C(\C#N)C(=O)Nc1ccc(C(F)(F)F)cc1 [teriflunomide, (Z)-2-Cyano-3-hydroxy-but-2-enoic acid-(4trifluoromethylphenyl)-amide]
CYP2B6
  effect on pharmacokinetics of bupropion (a CYP2B6 substrate): does not affect the pharmacokinetics
CYP2C9
  effect on pharmacokinetics of S-warfarin (a CYP2C9 substrate): does not affect the pharmacokinetics
PI3K signaling
  effect on PI3K signaling (pAKT immunoblot): did not affect PI3K signaling
CYP3A4
  effect on pharmacokinetics of midazolam (a CYP3A4 substrate): does not affect the pharmacokinetics
[1]
  chromosome gaps, breaks, and multiradial formations: greater number of chromosome gaps, breaks, and multiradial formations in MCCL-357 cells
[2]
  QT interval prolongation: no evidence that teriflunomide caused QT interval prolongation of clinical significance
  upper bound of the 90% confidence interval for the largest placebo-adjusted, baseline-corrected QTc: below 10 ms
CYP2D6
  effect on pharmacokinetics of metoprolol (a CYP2D6 substrate): does not affect the pharmacokinetics
CYP1A2
  decrease in mean AUC of caffeine: 55%
  decrease in mean Cmax of caffeine: 18%
[3]
  effect of rifampin on the pharmacokinetics of teriflunomide: does not affect the pharmacokinetics
[4]
  increase in mean rosuvastatin AUC: 2.51 fold
  increase in mean rosuvastatin Cmax: 2.65 fold
[5]
  increase in mean ethinylestradiol AUC 0-24: 1.54 fold
  increase in mean ethinylestradiol Cmax: 1.58 fold
  increase in mean levonorgestrel AUC 0-24: 1.41 fold
  increase in mean levonorgestrel Cmax: 1.33 fold
